ChEMBL document CHEMBL1221220, “Transport and signaling via the amino acid binding site of the yeast Gap1 amino acid transceptor” (Nat Chem Biol, 2009)
Substitutions are numbered along the chain they refer to. Activity calls are given as the source filed them. No cut-off for these calls is given here.

What was measured:
[1] = system: General amino-acid permease GAP1 (Saccharomyces cerevisiae), P19145 [S388C]; test: Induction of yeast Gap1 S388C mutant-mediated trehalose activation at 2 mM in presence of 10 mM MTSEA treated before compound addition
Chain of General amino-acid permease GAP1 (Saccharomyces cerevisiae), P19145 [S388C] (P19145 whole entry S388C): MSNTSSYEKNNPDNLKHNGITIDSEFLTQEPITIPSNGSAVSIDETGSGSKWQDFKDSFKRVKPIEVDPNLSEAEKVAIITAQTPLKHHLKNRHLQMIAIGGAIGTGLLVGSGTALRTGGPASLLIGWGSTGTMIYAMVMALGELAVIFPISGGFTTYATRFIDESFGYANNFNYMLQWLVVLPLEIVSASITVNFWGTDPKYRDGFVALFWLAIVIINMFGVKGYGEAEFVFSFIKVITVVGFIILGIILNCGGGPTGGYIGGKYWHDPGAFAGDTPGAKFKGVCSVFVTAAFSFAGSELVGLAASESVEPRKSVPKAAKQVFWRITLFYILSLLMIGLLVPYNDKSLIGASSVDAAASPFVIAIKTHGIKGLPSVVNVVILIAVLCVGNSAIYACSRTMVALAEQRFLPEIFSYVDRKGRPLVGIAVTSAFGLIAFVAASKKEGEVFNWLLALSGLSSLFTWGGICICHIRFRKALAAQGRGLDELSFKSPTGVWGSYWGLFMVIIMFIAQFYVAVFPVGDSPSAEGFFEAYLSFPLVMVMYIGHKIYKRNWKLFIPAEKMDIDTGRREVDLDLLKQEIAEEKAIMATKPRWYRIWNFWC

[2] = molecular target: T1, General amino-acid permease GAP1 (Saccharomyces cerevisiae) (UniProt P19145); test: Induction of nitrogen-starved wild type sigma1278b yeast Gap1-mediated amino acid uptake at 2 mM in presence of 10 mM MTSEA treated before compound addition
T1 sequence (whole entry): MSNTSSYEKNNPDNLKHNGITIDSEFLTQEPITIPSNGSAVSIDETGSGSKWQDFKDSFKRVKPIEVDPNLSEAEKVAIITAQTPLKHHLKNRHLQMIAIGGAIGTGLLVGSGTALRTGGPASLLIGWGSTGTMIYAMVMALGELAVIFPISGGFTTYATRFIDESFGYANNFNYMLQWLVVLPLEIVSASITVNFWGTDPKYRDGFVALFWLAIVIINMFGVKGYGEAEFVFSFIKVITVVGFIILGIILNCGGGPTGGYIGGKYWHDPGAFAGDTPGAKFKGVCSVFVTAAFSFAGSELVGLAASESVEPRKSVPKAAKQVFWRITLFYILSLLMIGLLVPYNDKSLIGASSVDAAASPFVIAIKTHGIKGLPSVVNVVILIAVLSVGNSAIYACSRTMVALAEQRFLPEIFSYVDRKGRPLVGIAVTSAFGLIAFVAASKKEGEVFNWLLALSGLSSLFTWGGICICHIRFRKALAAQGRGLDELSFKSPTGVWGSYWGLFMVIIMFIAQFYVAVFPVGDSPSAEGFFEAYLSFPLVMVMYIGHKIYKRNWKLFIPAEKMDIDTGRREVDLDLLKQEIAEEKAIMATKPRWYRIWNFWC

[3] = system: T2, General amino-acid permease GAP1 (Saccharomyces cerevisiae), P19145 [A393C]; test: Induction of yeast Gap1 A393C mutant-mediated […] activation at 2 mM in presence of 10 mM MTSEA treated before compound addition
T2 sequence (whole entry): T1 sequence (whole entry) with A393C

[4] = system: T2, General amino-acid permease GAP1 (Saccharomyces cerevisiae), P19145 [A393C]; test: Induction of yeast Gap1 A393C mutant-mediated trehalose activation at 10 mM
[5] = system: T3, General amino-acid permease GAP1 (Saccharomyces cerevisiae), P19145 [I384C]; test: Induction of yeast Gap1 I384C mutant-mediated trehalose activation at 10 mM
T3 sequence (whole entry): T1 sequence (whole entry) with I384C

[6] = molecular target: T1, General amino-acid permease GAP1 (Saccharomyces cerevisiae); test: Induction of nitrogen-starved wild type sigma1278b yeast Gap1-mediated trehalase activation at 2 mM in presence of 10 mM MTSEA treated before compound addition

- inhibition [1]: inactive
- inhibition [2]: Active
- inhibition [3]: Active
- Activity [4]: inactive
- Activity [5]: inactive
- inhibition [6]: Active
Compound: NC(=O)NCCC[C@H](N)C(=O)O
